According to ChEMBL document CHEMBL1201862, “PubChem BioAssay data set” (2004):
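All cell lines were grown in 96-well plates and treated with compound for 48 hours. At the GI50, growth is halved.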 Calls of active or inactive are those of the source. No stated cut-off is given here; in the data, active = GI50 up to about 1.1 µM and inactive = higher.

Assays:
Experiment in all cases: inhibition of tumour cell growth, NCI panel, 48 h
HOP-92 = tested on: HOP-92
KM12 = tested on: KM12
HOP-62 = tested on: HOP-62
NCI-H23 = tested on: NCI-H23
U-251 = tested on: U-251
IGROV-1 = tested on: IGROV-1
DLD-1 = tested on: DLD-1
OVCAR-5 = tested on: OVCAR-5
OVCAR-8 = tested on: OVCAR-8
A498 = tested on: A498
NCI-H460 = tested on: NCI-H460
SW-620 = tested on: SW-620
A549 = tested on: A549
TK-10 = tested on: TK-10
OVCAR-3 = tested on: OVCAR-3
HT-29 = tested on: HT-29
LOX IMVI = tested on: LOX IMVI
SF-295 = tested on: SF-295
SNB-78 = tested on: SNB-78
DMS-273 = tested on: DMS-273
HCT-15 = tested on: HCT-15
XF498 = tested on: XF498
KM-20L2 = tested on: KM-20L2
NCI-H522 = tested on: NCI-H522
SF-539 = tested on: SF-539
HL-60 = tested on: HL-60
UO-31 = tested on: UO-31
SK-MEL-28 = tested on: SK-MEL-28
LXFL 529 = tested on: LXFL 529
RPMI-8226 = tested on: RPMI-8226
SK-OV-3 = tested on: SK-OV-3
SNB-19 = tested on: SNB-19
SK-MEL-2 = tested on: SK-MEL-2
SK-MEL-5 = tested on: SK-MEL-5
UACC-62 = tested on: UACC-62
DMS-114 = tested on: DMS-114
UACC-257 = tested on: UACC-257
CCRF-CEM = tested on: CCRF-CEM
SF-268 = tested on: SF-268
M19-MEL = tested on: M19-MEL
HCT-116 = tested on: HCT-116
Malme-3M = tested on: Malme-3M
HOP-18 = tested on: HOP-18
786-0 = tested on: 786-0
K562 = tested on: K562
MOLT-4 = tested on: MOLT-4
EKVX = tested on: EKVX
M14 = tested on: M14
SR = tested on: SR
CAKI-1 = tested on: CAKI-1
SNB-75 = tested on: SNB-75
ACHN = tested on: ACHN
NCI-H226 = tested on: NCI-H226
SN12C = tested on: SN12C
OVCAR-4 = tested on: OVCAR-4
RXF 393 = tested on: RXF 393
HCC 2998 = tested on: HCC 2998
COLO 205 = tested on: COLO 205
RXF 631 = tested on: RXF 631

Measured: GI50

Cc1cc(=O)oc2c(C)c(OCCCOc3ccc4c(C)cc(=O)oc4c3C)ccc12
> 100 µM: HCT-15
inactive: HOP-92 65.9 µM | KM12 > 100 µM | HOP-62 > 100 µM | NCI-H23 > 100 µM | U-251 > 100 µM | IGROV-1 > 100 µM | DLD-1 > 100 µM | OVCAR-5 > 100 µM | OVCAR-8 > 100 µM | A498 > 100 µM | NCI-H460 > 100 µM | SW-620 > 100 µM | A549 > 100 µM | TK-10 > 100 µM | OVCAR-3 > 100 µM | HT-29 > 100 µM | LOX IMVI > 100 µM | SF-295 > 100 µM | SNB-78 > 100 µM | DMS-273 > 100 µM | XF498 > 100 µM | KM-20L2 > 100 µM | NCI-H522 > 100 µM | SF-539 > 100 µM | HL-60 > 100 µM | UO-31 > 100 µM | SK-MEL-28 > 100 µM | LXFL 529 > 100 µM | RPMI-8226 > 100 µM | SK-OV-3 > 100 µM | SNB-19 > 100 µM | SK-MEL-2 > 100 µM | SK-MEL-5 > 100 µM | UACC-62 > 100 µM | DMS-114 > 100 µM | UACC-257 > 100 µM | CCRF-CEM > 100 µM | SF-268 > 100 µM | M19-MEL > 100 µM | HCT-116 > 100 µM | Malme-3M > 100 µM | HOP-18 > 100 µM | 786-0 > 100 µM | K562 > 100 µM | MOLT-4 > 100 µM | EKVX > 100 µM | M14 > 100 µM | SR > 100 µM | CAKI-1 > 100 µM

CC1CC(c2ccc(Cl)c(Cl)c2)=Nc2ccccc2S1 (stereo unspecified)
inactive: HOP-92 > 100 µM | KM12 > 100 µM | HOP-62 > 100 µM | NCI-H23 > 100 µM | U-251 > 100 µM | SNB-75 > 100 µM | IGROV-1 > 100 µM | DLD-1 > 100 µM | ACHN > 100 µM | NCI-H226 > 100 µM | OVCAR-5 > 100 µM | OVCAR-8 > 100 µM | A498 > 100 µM | NCI-H460 > 100 µM | SW-620 > 100 µM | A549 > 100 µM | TK-10 > 100 µM | SN12C > 100 µM | OVCAR-4 > 100 µM | OVCAR-3 44.5 µM | HT-29 > 100 µM | LOX IMVI > 100 µM | SF-295 > 100 µM | RXF 393 > 100 µM | HCC 2998 > 100 µM | SNB-78 > 100 µM | DMS-273 > 100 µM | XF498 > 100 µM | KM-20L2 > 100 µM | NCI-H522 > 100 µM | SF-539 > 100 µM | HL-60 > 100 µM | UO-31 > 100 µM | SK-MEL-28 > 100 µM | LXFL 529 > 100 µM | RPMI-8226 > 100 µM | SK-OV-3 > 100 µM | SNB-19 > 100 µM | SK-MEL-5 > 100 µM | UACC-62 > 100 µM | DMS-114 > 100 µM | UACC-257 > 100 µM | CCRF-CEM 41.9 µM | SF-268 > 100 µM | M19-MEL > 100 µM | HCT-116 > 100 µM | COLO 205 > 100 µM | Malme-3M > 100 µM | HOP-18 > 100 µM | 786-0 > 100 µM | K562 > 100 µM | MOLT-4 > 100 µM | EKVX > 100 µM | M14 > 100 µM | SR 46 µM | CAKI-1 > 100 µM
> 100 µM: HCT-15

O=CC[C@H]1CCc2ccccc2C12CCC(=O)CC2
inactive: HOP-92 68.4 µM | KM12 82.8 µM | HOP-62 > 100 µM | SNB-75 52.8 µM | IGROV-1 > 100 µM | DLD-1 60.7 µM | ACHN > 100 µM | RXF 631 > 100 µM | NCI-H226 51.4 µM | OVCAR-5 > 100 µM | OVCAR-8 > 100 µM | A498 > 100 µM | NCI-H460 > 100 µM | SW-620 80.2 µM | A549 55.7 µM | SN12C 67.8 µM | OVCAR-4 > 100 µM | OVCAR-3 > 100 µM | HT-29 47.9 µM | LOX IMVI 62.7 µM | SF-295 > 100 µM | HCC 2998 > 100 µM | XF498 51.5 µM | KM-20L2 22.1 µM | NCI-H522 43.2 µM | SF-539 6.21 µM | HL-60 23.7 µM | UO-31 33.7 µM | LXFL 529 57.5 µM | RPMI-8226 35.4 µM | SK-OV-3 > 100 µM | SNB-19 87.7 µM | SK-MEL-2 > 100 µM | SK-MEL-5 92.9 µM | UACC-62 92 µM | DMS-114 33.8 µM | UACC-257 60.8 µM | CCRF-CEM 39.8 µM | SF-268 76.6 µM | M19-MEL 57.7 µM | HCT-116 39.3 µM | COLO 205 94.2 µM | Malme-3M 74.5 µM | 786-0 > 100 µM | K562 28.2 µM | MOLT-4 30.5 µM | M14 86.3 µM | CAKI-1 > 100 µM
80.4 µM: HCT-15
